Measurements from US9512175B2, “Macrocyclic inhibitors of flaviviridae viruses” (Gilead Sciences, Inc., priority 2012, dated 2016).
Like-named read-outs stand apart in the source and are kept apart here.

Key:
[1] = target: cyclophilin A (Homo sapiens, UniProt P62937); assay: Cyclophilin A TR-FRET competitive binding assay; conditions: IC50 ranges, competition with CsA-Cy5 for His-tagged CypA, two-hour incubation
Experimental: Cyclophilin A TR-FRET Competitive Binding Assay
Inhibitor potency was measured using a competitive binding assay with a time-resolved fluorescence resonance energy transfer (TR-FRET) readout. […] An IC50 value was calculated using a four-parameter logistic fit.

[2] = system: HCV replicon (Replicon 1a); assay: anti-HCV activity in Huh-7 cell line harboring a HCV replicon (Replicon 1a); type: cell-based; conditions: for inhibition at 1 µM: Hepatitis C virus, Huh-7, 72 h
[3] = read-out: Replicon 1a % inhibition at 1 μM, 1 μM, human hepatoma Huh-7 HCV replicon cells, 3 days, luciferase readout
[4] = read-out: Replicon 1a % inhibition at 1 μM

cyclophilin A, sequence (P62937 whole entry, species assumed): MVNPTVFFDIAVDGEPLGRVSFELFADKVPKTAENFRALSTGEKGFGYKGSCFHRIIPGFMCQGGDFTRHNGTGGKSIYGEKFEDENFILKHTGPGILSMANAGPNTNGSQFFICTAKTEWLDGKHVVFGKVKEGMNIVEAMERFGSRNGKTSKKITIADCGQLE

Row | SMILES | IC50 ([1]; read-out: TR-FRET) [nM] | inhibition at 1 µM [2, 3] [%] | inhibition at 1 µM [2, 4] [%] | IC50 ([1]; TR-FRET) [nM] | Replicon 1a % inhibition at 1 μM ([2]; 1 μM, human hepatoma Huh-7 HCV replicon cells, 3 days, luciferase readout) [%]
1 | CC[C@H](C)[C@@H]1NC(=O)C(C)(C)/C=C/c2ccc3ccc(nc3c2)[C@@H](C)OC(=O)[C@@H]2CCCN(N2)C(=O)[C@H](C)NC1=O [Compound 125] | < 100 | 100 |  |  | 
2 | CC(C)[C@@H]1NC(=O)CCc2ccc(cc2)-c2cccc(c2)[C@@H](C)OC(=O)[C@@H]2CCCN(N2)C(=O)[C@H](C)NC1=O [Compound 43] | < 100 | 97 |  |  | 
3 | CC(C)[C@@H]1NC(=O)C(C)(C)/C=C/c2ccc3c(=O)n(C)c(nc3c2)[C@@H](C)OC(=O)C2CCCN(N2)C(=O)[C@@H](C)NC1=O (stereo partly drawn) [Compound 147] | < 100 | 94 |  |  | 
4 | COC(=O)N1CCC2(/C=C/c3ccc4ccc(nc4c3)[C@@H](C)OC(=O)[C@@H]3CCCN(N3)C(=O)[C@H](C)NC(=O)[C@H](C(C)C)NC2=O)CC1 [Compound 132] | < 100 |  | 100 |  | 
5 | CC(C)[C@@H]1NC(=O)[C@H](C)[C@H](O)CCCCc2cccc(c2)[C@@H](C)NC(=O)[C@@H]2CCCN(N2)C(=O)[C@H](C)NC1=O [Compound 3, (2R,5S,11S,14S,17R,18R)-18-Hydroxy-14-isopropyl-2,11,17-trimethyl-3,9,12,15,28-pentaaza-tricyclo[21.3.1.1*5,9*]octacosa-1(26),23(27),24-triene-4,10,13,16-tetraone] | < 100 | 44 |  |  | 
6 | CC(C)[C@@H]1NC(=O)[C@H](C)[C@H](OCC(F)(F)F)CC/C=C/c2cccc(c2)[C@@H](C)NC(=O)[C@@H]2CCCN(N2)C(=O)[C@H](C)NC1=O [Compound 2, (E)-(2R,5S,11 S,14S,17R,18R)-14-Isopropyl-2,11,17-trimethyl-18-(2,2,2-trifluoro-ethoxy)-3,9,12,15,28-pentaaza-tricyclo[21.3.1.1*5,9*]octacosa-1(26),21,23(27),24-tetraene-4,10,13,16-tetraone] | 101 to 1000 | 63 |  |  | 
7 | CC(C)[C@@H]1NC(=O)C2(/C=C/c3ccc4ccc(nc4c3)[C@@H](C)OC(=O)[C@@H]3CCCN(N3)C(=O)[C@H](C)NC1=O)CCN(S(=O)(=O)CC1CC1)CC2 [Compound 134] | < 100 | 99 |  |  | 
8 | CO[C@@H](C)[C@H]1/C=C/c2ccc3ccc(nc3c2)[C@@H](C)OC(=O)[C@@H]2CCCN(N2)C(=O)[C@@H](C)NC(=O)[C@H](C(C)C)NC1=O [Compound 149] | < 100 | 99 |  |  | 
9 | CC(C)[C@@H]1NC(=O)[C@@H]([C@@H](C)O)/C=C/c2ccc3ccc(nc3c2)[C@@H](C)OC(=O)[C@@H]2CCCN(N2)C(=O)[C@H](C)NC1=O [Compound 83] | < 100 | 99 |  |  | 
10 | CC(C)[C@@H]1NC(=O)C(C)(C)/C=C/c2ccc3ccc(nc3c2)[C@@H](C)OC(=O)[C@@H]2CCCN(N2)C(=O)[C@H](COC(F)F)NC1=O [Compound 106] | < 100 | 99 |  |  | 
11 | CO[C@@H]1/C=C/c2cc3cc(ccc3cn2)[C@@H](C)OC(=O)[C@]2(C)CCCN(N2)C(=O)[C@H](C)NC(=O)[C@H](C(C)C)NC(=O)[C@@H]1C (single isomer, unassigned) [Compound 34] | < 100 | 92 |  |  | 
12 | CC(C)[C@@H]1NC(=O)[C@H](CC2CC2)/C=C/c2ccc3ccc(nc3c2)[C@@H](C)OC(=O)[C@@H]2CCCN(N2)C(=O)[C@H](C)NC1=O [Compound 81] |  |  | 100 | < 100 | 
13 | CC(C)[C@@H]1NC(=O)C(C)(C)/C=C/c2ccc3ccc(nc3c2)[C@@H]2CCCN2C(=O)[C@@H]2CCCN(N2)C(=O)[C@H](C)NC1=O (single isomer, unassigned) [Compound 151] | 1000 to 10000 | 0 |  |  | 
14 | CC(C)[C@H](NC(=O)[C@H](/C=C/c1ccc2ccc([C@@H](C)O)nc2c1)[C@H](C)O)C(=O)N[C@@H](C)C(=O)N1CCC[C@@H](C(=O)O)N1 [Compound 166] | 1000 to 10000 | 0 |  |  | 
15 | C[C@@H]1NC(=O)[C@H](CO)NC(=O)C/C=C/c2cc3cc(ccc3cn2)[C@@H](C)OC(=O)[C@@H]2CCCN(N2)C1=O [Compound 47] | 101 to 1000 | 9 |  |  | 
16 | CC(C)[C@@H]1NC(=O)C(C)(C)/C=C/c2ccc3ccc(nc3c2)[C@@H](C(F)(F)F)NC(=O)[C@@H]2CCCN(N2)C(=O)[C@H](C)NC1=O [Compound 13] | < 100 |  | 87 |  | 
17 | CC(C)[C@@H]1NC(=O)C(C)(C)/C=C/c2ccc3ccc(nc3c2)C(C)N(C)C(=O)[C@@H]2CCCN(N2)C(=O)[C@H](C)NC1=O (stereo partly drawn) [Compound 115] | < 100 | 92 |  |  | 
18 | CC(C)[C@@H]1NC(=O)C(C)(C(C)O)/C=C/c2ccc3ccc(nc3c2)[C@@H](C)OC(=O)[C@@H]2CCCN(N2)C(=O)[C@H](C)NC1=O (stereo partly drawn) [Compound 90] | < 100 |  |  |  | 100

Row | SMILES | IC50 ([1]; read-out: TR-FRET) [nM] | inhibition at 1 µM [2, 3] [%] | inhibition at 1 µM [2, 4] [%] | IC50 ([1]; TR-FRET) [nM] | Replicon 1a % inhibition at 1 μM ([2]; 1 μM, human hepatoma Huh-7 HCV replicon cells, 3 days, luciferase readout) [%]
19 | CC(C)[C@@H]1NC(=O)C(C)(C)/C=C/c2ccc3ccc(nc3c2)[C@@H](C)OC(=O)[C@@H]2CCCN(N2)C(=O)[C@H]([C@@H](C)O)NC1=O [Compound 91] | < 100 | 99 |  |  | 
20 | CC(C)[C@@H]1NC(=O)C(C)(C)/C=C/c2ccc3c(Cl)cc(nc3c2)[C@@H](C)OC(=O)[C@@H]2CCCN(N2)C(=O)[C@H](C)NC1=O [Compound 138] | < 100 | 100 |  |  | 
21 | CC(C)[C@@H]1NC(=O)C(CO)(CO)/C=C/c2ccc3ccc(nc3c2)[C@@H](C)OC(=O)[C@@H]2CCCN(N2)C(=O)[C@H](C)NC1=O [Compound 76] | < 100 | 63 |  |  | 
22 | CC(C)[C@@H]1NC(=O)CCc2ccc(cn2)-c2cccc(c2)[C@@H](C)OC(=O)[C@@H]2CCCN(N2)C(=O)[C@H](C)NC1=O [Compound 44] | < 100 | 78 |  |  | 
23 | CC(C)[C@@H]1NC(=O)C/C=C/c2cnc3ccc(cc3c2)[C@@H](C)OC(=O)[C@@H]2CCCN(N2)C(=O)[C@H](C)NC1=O [Compound 15] | < 100 | 99 |  |  | 
24 | CC(C)[C@@H]1NC(=O)C(C)(C)/C=C/c2ccc3ccc(cc3c2)[C@@H](C)OC(=O)[C@@H]2CCCN(N2)C(=O)[C@H](C)NC1=O [Compound 142] | < 100 | 99 |  |  | 
25 | CC(C)[C@@H]1NC(=O)CCC(C)(C)C/C=C/c2cccc(c2)[C@@H](C)NC(=O)[C@@H]2CCCN(N2)C(=O)[C@H](C)NC1=O [Compound 4] | 101 to 1000 | 58 |  |  | 
26 | CC(C)[C@@H]1NC(=O)C(C)(C)/C=C/c2ccc3ccc(nc3c2)[C@@H](C)OC(=O)[C@@H]2CCCN(N2)C(=O)[C@H](CC(=O)N(C)C)NC1=O [Compound 97] | < 100 | 98 |  |  | 
27 | COC[C@@H]1NC(=O)[C@H](C(C)C)NC(=O)C(C)(C)/C=C/c2ccc3ccc(nc3c2)[C@@H](C)OC(=O)[C@@H]2CCCN(N2)C1=O (single isomer, unassigned) [Compound 117] | < 100 | 100 |  |  | 
28 | CC(C)[C@@H]1NC(=O)[C@H](C)/C=C/c2ccc3ccc(nc3c2)[C@@H](C)OC(=O)[C@@H]2CCCN(N2)C(=O)[C@H](C)NC1=O [Compound 26] |  |  | 99 | < 100 | 
29 | CCN1CCC2(/C=C/c3ccc4ccc(nc4c3)[C@@H](C)OC(=O)[C@@H]3CCCN(N3)C(=O)[C@H](C)NC(=O)[C@H](C(C)C)NC2=O)CC1 [Compound 129] | < 100 |  | 96 |  | 
30 | C=CC[C@@H]1NC(=O)C(C)(C)/C=C/c2cc3cc(ccc3cn2)[C@@H](C)OC(=O)[C@@H]2CCCN(N2)C(=O)[C@H](C)NC1=O [Compound 52] | < 100 | 98 |  |  | 
31 | CC(C)[C@@H]1NC(=O)[C@@H](C)Oc2ccc(cc2)-c2cccc(c2)[C@@H](C)OC(=O)[C@@H]2CCCN(N2)C(=O)[C@H](C)NC1=O [Compound 40] | < 100 | 96 |  |  | 
32 | CC1NC(=O)C(C(C)C)NC(=O)C(C)(C)/C=C/c2ccc3c(C#N)cc(nc3c2)C(C)OC(=O)C2CCCN(N2)C1=O (stereo not drawn) [Compound 141] | < 100 | 99 |  |  | 
33 | CC(C)[C@@H]1NC(=O)C(C)(C)/C=C/c2ccc3ccc(nc3c2)[C@@H](C)OC(=O)[C@@H]2CCCN(N2)C(=O)[C@H](Cc2cscn2)NC1=O [Compound 110] | < 100 | 100 |  |  | 
34 | CC(C)[C@@H]1NC(=O)C(C)(C)/C=C/c2cc3cc(ccc3cn2)[C@@H](C)NC(=O)[C@@H]2CCCN(N2)C(=O)[C@H](C)NC1=O [Compound 143] | < 100 | 31 |  |  | 
35 | CC(C)[C@@H]1NC(=O)C(C)(C)/C=C/c2ccc3ccc(nc3c2)[C@@H](C)OC(=O)[C@@H]2CCCN(N2)C(=O)[C@H](CC(=O)N2CCCC2)NC1=O [Compound 99] | < 100 | 96 |  |  | 
36 | CC(C)OC(=O)OCO[C@@H](C)[C@H]1/C=C/c2ccc3ccc(nc3c2)[C@@H](C)OC(=O)[C@@H]2CCCN(N2)C(=O)[C@H](C)NC(=O)[C@H](C(C)C)NC1=O [Compound 168] | < 100 | 100 |  |  | 
